Experimental findings from patent publication US9133168B2, “Pyrimidine derivatives, preparation thereof, and pharmaceutical use thereof as akt(pkb) phosphorylation inhibitors” (SANOFI, priority 2010, dated 2015) are described below.

This experiment relates to AKT protein phosphorylated on serine 473 (P-AKT-S473) in PC3 human prostate carcinoma cells. Nature of the experiment: pAKT expression in PC3 human prostate carcinoma cells, MSD Multi-spot Biomarker detection (Test A). To be noted: 1 to 2 h incubation, P-AKT-S473, absolute IC50, mean of two independent experiments. In kind it is cell-based. The gist of the method: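 Lysate pAKT-S473 measured by electrochemiluminescent sandwich immunoassay; inhibition versus cell-free background and DMSO-only wells, IC50 averaged over two experiments.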

Take `C[C@@H]1Cc2ccccc2N1C(=O)Cc1nc(N2CCOCC2)c(F)c(=S)[nH]1` [Example 11e, 2-(5-fluoro-4-morpholin-4-yl-6-thioxo-1,6-dihydropyrimidin-2-yl)-1-((R)-2-methyl-2,3-dihydroindol-1-yl)ethanone]: under “Homo sapiens, PC-3, PC3 cells”, the midpoint of inhibition, the IC50, lay at 61 nM.
Regarding `CC1Cc2cc(F)c(F)cc2N1C(=O)Cc1nc(N2CCOCC2)c(F)c(=O)[nH]1` (stereo not drawn) [Example 12a, 2-[2-((+)-5,6-difluoro-2-methyl-2,3-dihydroindol-1-yl)-2-oxoethyl]-5-fluoro-6-morpholin-4-yl-3H-pyrimidin-4-one], inhibition (PC3 cells) was half-maximal at 16 nM (IC50). This lies in the double-digit nanomolar range.
As for `O=C(Cc1nc(-c2ccncc2)cc(=O)[nH]1)N1CCc2c(F)cccc21` [Example 12b, 2-[2-(4-fluoro-2,3-dihydroindol-1-yl)-2-oxoethyl]-6-pyridin-4-yl-3H-pyrimidin-4-one], the IC50 – broadly, the concentration that inhibits the measured activity by half – (Homo sapiens, PC-3, PC3 cells) is 370 nM.
Regarding `O=C(Cc1nc(N2CCOCC2)cc(=O)[nH]1)N1CCc2c(-c3ccccn3)cccc21` [Example 12d, 6-(morpholin-4-yl)-2-{2-oxo-2-[4-(pyridin-2-yl)-2,3-dihydro-1H-indol-1-yl]ethyl}pyrimidin-4(3H)-one], for the setting “Homo sapiens, PC-3, PC3 cells”, the IC50 amounted to 66 nM.
As to `CC1Cc2cc(F)c(F)cc2N1C(=O)Cc1nc(N2CCOCC2)c(F)c(=O)[nH]1` (stereo not drawn) [Example 13a, 2-[2-((−)-5,6-difluoro-2-methyl-2,3-dihydroindol-1-yl)-2-oxoethyl]-5-fluoro-6-morpholin-4-yl-3H-pyrimidin-4-one], the IC50 (PC3 cells) was 162 nM.
Take `COc1cc(-c2cc(=O)[nH]c(CC(=O)N3CCc4c(F)cccc43)n2)ccn1` [Example 13b, 2-[2-(4-fluoro-2,3-dihydroindol-1-yl)-2-oxoethyl]-6-(2-methoxypyridin-4-yl)-3H-pyrimidin-4-one]: for the setting “Homo sapiens, PC-3, PC3 cells”, the IC50 amounted to 3000 nM.
On the same count and under the same terms, the result for `O=C(Cc1nc(N2CCOCC2)cc(=O)[nH]1)N1CCc2c(-c3cccnc3)cccc21` [Example 13d, 6-(morpholin-4-yl)-2-{2-oxo-2-[4-(pyridin-3-yl)-2,3-dihydro-1H-indol-1-yl]ethyl}pyrimidin-4(3H)-one] reads 53 nM; that for `CC1Cc2cc(F)ccc2N1C(=O)Cc1nc(N2CCOCC2)c(F)c(=O)n1C` (stereo not drawn) [Example 14a, 5-fluoro-2-[2-((−)-5-fluoro-2-methyl-2,3-dihydroindol-1-yl)-2-oxoethyl]-3-methyl-6-morpholin-4-yl-3H-pyrimidin-4-one], 55 nM.
The same measure, in the same setting: the result for `O=C(Cc1nc(N2CCOCC2)cc(=O)[nH]1)N1CCc2c(-c3ccccc3Cl)cccc21` [Example 14d, 2-{2-[4-(2-chlorophenyl)-2,3-dihydro-1H-indol-1-yl]-2-oxoethyl}-6-(morpholin-4-yl)pyrimidin-4(3H)-one] reads 42 nM.
Consider `CC1Cc2cc(F)ccc2N1C(=O)Cc1nc(N2CCOCC2)c(F)c(=O)n1C` (stereo not drawn) [Example 15a, 5-fluoro-2-[2-((+)-5-fluoro-2-methyl-2,3-dihydroindol-1-yl)-2-oxoethyl]-3-methyl-6-morpholin-4-yl-3H-pyrimidin-4-one], for which the IC50 (PC3 cells) came out at 65 nM.
Where the note is “Homo sapiens, PC-3, PC3 cells”, `O=C(Cc1nc(N2CCOCC2)cc(=O)n1C1CC1)N1CCc2c(Cl)cccc21` [Example 15d, 2-[2-(4-chloro-2,3-dihydro-1H-indol-1-yl)-2-oxoethyl]-3-cyclopropyl-6-(morpholin-4-yl)pyrimidin-4(3H)-one] had an IC50 of 37 nM.
On the same count and under the same terms, the result for `O=C(Cc1nc(N2CCOCC2)cc(=O)[nH]1)N1c2ccccc2C2CCCC21` (stereo not shown) [Example 16d, 6-(morpholin-4-yl)-2-[2-oxo-2-(2,3,3a,8b-tetrahydrocyclopenta[b]indol-4(1H)-yl)ethyl]pyrimidin-4(3H)-one] reads 30 nM; that for `CS(=O)(=O)N1CCN(Cc2cccc3c2CCN3C(=O)Cc2nc(N3CCOCC3)cc(=O)[nH]2)CC1` [Example 17d, 2-[2-(4-{[4-(methylsulfonyl)piperazin-1-yl]methyl}-2,3-dihydro-1H-indol-1-yl)-2-oxoethyl]-6-(morpholin-4-yl)pyrimidin-4(3H)-one], 259 nM; that for `CC1Cc2c(Cl)cccc2N1C(=O)Cc1nc(N2CCOCC2)c(F)c(=O)[nH]1` (stereo not drawn) [Example 18a, 5-fluoro-2-[2-((+)-4-chloro-2-methyl-2,3-dihydroindol-1-yl)-2-oxoethyl]-6-morpholin-4-yl-3H-pyrimidin-4-one], 38 nM.
As for `[2H]C1([2H])COCC([2H])([2H])N1c1cc(=O)[nH]c(CC(=O)N2CC(C)(C)c3ccccc32)n1` [Example 18b, 2-[2-(3,3-dimethyl-2,3-dihydroindol-1-yl)-2-oxoethyl]-6-morpholin(D4)-4-yl-3H-pyrimidin-4-one], half-maximal inhibition (Homo sapiens, PC-3, PC3 cells) (IC50) was put at 91 nM.
Same read-out and setting: the result for `CN1CCN(Cc2cccc3c2CCN3C(=O)Cc2nc(N3CCOCC3)cc(=O)[nH]2)CC1` [Example 18d, 2-(2-{4-[(4-methylpiperazin-1-yl)methyl]-2,3-dihydro-1H-indol-1-yl}-2-oxoethyl)-6-(morpholin-4-yl)pyrimidin-4(3H)-one] reads 272 nM.
`CC1Cc2c(Cl)cccc2N1C(=O)Cc1nc(N2CCOCC2)c(F)c(=O)[nH]1` (stereo not shown) [Example 19a]: inhibition (PC3 cells) was half-maximal at 19 nM (IC50).
The same measure, in the same setting: the result for `C[C@H]1Cc2ccccc2N1C(=O)Cc1nc(N2CCOCC2)cc(=O)[nH]1` [Example 19b, (+)-2-[2-(2-methyl-2,3-dihydroindol-1-yl)-2-oxoethyl]-6-morpholin(D4)-4-yl-3H-pyrimidin-4-one] reads 16 nM.
Regarding `O=C(Cc1nc(N2CCOCC2)cc(=O)[nH]1)N1CCc2c(-c3ccccc3F)cccc21` [Example 19d, 2-{2-[4-(2-fluorophenyl)-2,3-dihydro-1H-indol-1-yl]-2-oxoethyl}-6-(morpholin-4-yl)pyrimidin-4(3H)-one], under “Homo sapiens, PC-3, PC3 cells”, the IC50 amounted to 23 nM.
As for `CC1Cc2c(ccc(F)c2F)N1C(=O)Cc1nc(N2CCOCC2)c(F)c(=O)[nH]1` (stereo not drawn) [Example 20a, 2-[2-((−)-4,5-difluoro-2-methyl-2,3-dihydroindol-1-yl)-2-oxoethyl]-5-fluoro-6-morpholin-4-yl-3H-pyrimidin-4-one], the IC50 (PC3 cells) came to 2 nM.
On the same count and under the same terms, the result for `C[C@@H]1Cc2ccccc2N1C(=O)Cc1nc(N2CCOCC2)cc(=O)[nH]1` [Example 20b, (−)-2-[2-(2-methyl-2,3-dihydroindol-1-yl)-2-oxoethyl]-6-(2,2,6,6-morpholin-D4)-4-yl-3H-pyrimidin-4-one] reads 5 nM.
`CN1CCN(Cc2cccc3c2CCN3C(=O)Cc2nc(N3CCOCC3)cc(=O)n2C)CC1` [Example 20d, 3-methyl-2-(2-{4[(4-methylpiperazin-1-yl)methyl]-2,3-dihydro-1H-indol-1-yl}-2-oxoethyl)-6-(morpholin-4-yl)pyrimidin-4(3H)-one] came in with an IC50 (Homo sapiens, PC-3, PC3 cells) of 520 nM.
For `CC1Cc2c(ccc(F)c2F)N1C(=O)Cc1nc(N2CCOCC2)c(F)c(=O)[nH]1` (stereo not drawn) [Example 21a, 2-[2-((+)-4,5-difluoro-2-methyl-2,3-dihydroindol-1-yl)-2-oxoethyl]-5-fluoro-6-morpholin-4-yl-3H-pyrimidin-4-one], the IC50 (PC3 cells) was determined as 15 nM. This lies in the double-digit nanomolar range.
On the same count and under the same terms, the result for `CC1Cc2cc(F)c(F)cc2N1C(=O)Cc1nc(N2CCOCC2)cc(=O)[nH]1` (stereo not drawn) [Example 21c, 2-{2-[(+)-5,6-difluoro-2-methyl-2,3-dihydro-1H-indol-1-yl]-2-oxoethyl}-6-(morpholin-4-yl)pyrimidin-4(3H)-one] reads 17 nM.
With `O=C(Cc1nc(N2CCOCC2)cc(=O)[nH]1)N1CC2(CCOCC2)c2ccccc21` [Example 21d, 6-(morpholin-4-yl)-2-[2-oxo-2-(2′,3′,5′,6′-tetrahydrospiro[indole-3,4′-pyran]-1(2H)-yl)ethyl]pyrimidin-4(3H)-one], the IC50 (Homo sapiens, PC-3, PC3 cells) came to 155 nM.
